In PubChem BioAssay (NCI):
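Each compound was tested at five concentrations against cells in 96-well plates for 48 hours. TGI marks complete inhibition of growth.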

Tests used:
Assay in all cases: inhibition of tumour cell growth, NCI panel, 48 h
[1] = system: BT-549 breast
[2] = system: OVCAR-8 ovarian
[3] = system: HCT-15 colon
[4] = system: RXF 393 renal
[5] = system: HT29 colon
[6] = system: HCC-2998 colon
[7] = system: U251 CNS
[8] = system: A498 renal
[9] = system: UACC-257 melanoma
[10] = system: 786-0 renal
[11] = system: SK-MEL-5 melanoma
[12] = system: LOX IMVI melanoma
[13] = system: OVCAR-4 ovarian
[14] = system: K-562 leukemia
[15] = system: NCI/ADR-RES ovarian
[16] = system: NCI-H226 lung
[17] = system: PC-3 prostate
[18] = system: SF-539 CNS
[19] = system: A549 NSCLC
[20] = system: MDA-N
[21] = system: HOP-92 NSCLC
[22] = system: OVCAR-5 ovarian
[23] = system: OVCAR-3 ovarian
[24] = system: MOLT-4 leukemia
[25] = system: TK-10 renal
[26] = system: MDA-MB-231 breast
[27] = system: SW-620 colon
[28] = system: HL-60(TB) leukemia
[29] = system: IGROV1 ovarian
[30] = system: MDA-MB-435
[31] = system: EKVX NSCLC
[32] = system: ACHN renal
[33] = system: SK-MEL-2 melanoma
[34] = system: MALME-3M melanoma
[35] = system: MCF7 breast
[36] = system: NCI-H460 lung
[37] = system: CAKI-1 renal
[38] = system: M14 melanoma
[39] = system: DU-145 prostate
[40] = system: UO-31 renal
[41] = system: SN12C renal
[42] = system: SK-MEL-28 melanoma
[43] = system: HCT-116 colon
[44] = system: NCI-H522 lung
[45] = system: NCI-H23 lung
[46] = system: UACC-62 melanoma
[47] = system: COLO 205 colon
[48] = system: KM12 colon
[49] = system: SF-268 CNS
[50] = system: T-47D breast
[51] = system: SK-OV-3 ovarian
[52] = system: HOP-62 NSCLC
[53] = system: SF-295 CNS
[54] = system: SNB-19 CNS
[55] = system: SNB-75 CNS
[56] = system: SR leukemia
[57] = system: RPMI-8226 leukemia

`CCOC(=O)CCC(NC(=O)c1ccc(NCc2ccc3nc(OC)c(OC)nc3c2)c2ccccc12)C(=O)OCC` (stereo not drawn) was tested. Which TGI [1] did it give?
Its TGI is greater than 100 µM.

And the TGI [2]?
The TGI was greater than 100 µM.

What about the TGI [3] of the same molecule?
Its TGI is greater than 100 µM.

And the TGI [4]?
Its TGI is greater than 100 µM.

And the TGI [5]?
The TGI was greater than 100 µM.

And the TGI [6]?
Its TGI is greater than 100 µM.

And the TGI [7]?
Its TGI is greater than 100 µM.

What about the TGI [8] of the same molecule?
Its TGI is greater than 100 µM.

And the TGI [9]?
Its TGI is greater than 100 µM.

And the TGI [10]?
The TGI was greater than 100 µM.

What about the TGI [11] of the same molecule?
Its TGI is greater than 100 µM.

And the TGI [12]?
The TGI was greater than 100 µM.

What about the TGI [13] of the same molecule?
The TGI was greater than 100 µM.

What about the TGI [14] of the same molecule?
The TGI was greater than 100 µM.

And the TGI [15]?
Its TGI is greater than 100 µM.

What about the TGI [16] of the same molecule?
Its TGI is greater than 100 µM.

And the TGI [17]?
The TGI was greater than 100 µM.

What about the TGI [18] of the same molecule?
Its TGI is 56.5 µM.

And the TGI [19]?
The TGI was greater than 100 µM.

And the TGI [20]?
Its TGI is greater than 100 µM.

What about the TGI [21] of the same molecule?
Its TGI is 97.7 µM.

And the TGI [22]?
Its TGI is greater than 100 µM.

What about the TGI [23] of the same molecule?
Its TGI is greater than 100 µM.

What about the TGI [24] of the same molecule?
The TGI was greater than 100 µM.

What about the TGI [25] of the same molecule?
Its TGI is greater than 100 µM.

And the TGI [26]?
The TGI was greater than 100 µM.

And the TGI [27]?
The TGI was greater than 100 µM.

And the TGI [28]?
The TGI was greater than 100 µM.

And the TGI [29]?
Its TGI is greater than 100 µM.

And the TGI [30]?
The TGI was greater than 100 µM.

And the TGI [31]?
Its TGI is greater than 100 µM.

And the TGI [32]?
Its TGI is greater than 100 µM.

What about the TGI [33] of the same molecule?
The TGI was greater than 100 µM.

And the TGI [34]?
The TGI was greater than 100 µM.

And the TGI [35]?
Its TGI is greater than 100 µM.

And the TGI [36]?
The TGI was greater than 100 µM.

And the TGI [37]?
The TGI was greater than 100 µM.

What about the TGI [38] of the same molecule?
The TGI was greater than 100 µM.

And the TGI [39]?
Its TGI is greater than 100 µM.

And the TGI [40]?
The TGI was greater than 100 µM.

What about the TGI [41] of the same molecule?
The TGI was greater than 100 µM.

What about the TGI [42] of the same molecule?
The TGI was greater than 100 µM.

What about the TGI [43] of the same molecule?
The TGI was greater than 100 µM.

And the TGI [44]?
Its TGI is greater than 100 µM.

What about the TGI [45] of the same molecule?
Its TGI is greater than 100 µM.

And the TGI [46]?
Its TGI is greater than 100 µM.

What about the TGI [47] of the same molecule?
The TGI was greater than 100 µM.

And the TGI [48]?
The TGI was greater than 100 µM.

And the TGI [49]?
Its TGI is greater than 100 µM.

And the TGI [50]?
Its TGI is greater than 100 µM.

What about the TGI [51] of the same molecule?
Its TGI is greater than 100 µM.

What about the TGI [52] of the same molecule?
Its TGI is greater than 100 µM.

What about the TGI [53] of the same molecule?
Its TGI is greater than 100 µM.

And the TGI [54]?
The TGI was greater than 100 µM.

What about the TGI [55] of the same molecule?
Its TGI is greater than 100 µM.

Which TGI [1] does the source give for `COc1ccc2c3c(c4cc(OC)c(OC)cc4c2c1)CN1CCC[C@H]1[C@@H]3O` here?
The TGI was 6.76 µM.

What about the TGI [3] of the same molecule?
The TGI was 1.19 µM.

What about the TGI [4] of the same molecule?
Its TGI is 7.64 µM.

And the TGI [5]?
Its TGI is 0.373 µM.

And the TGI [9]?
The TGI was 0.544 µM.

What about the TGI [11] of the same molecule?
Its TGI is 0.398 µM.

And the TGI [13]?
The TGI was 31.2 µM.

And the TGI [14]?
The TGI was 0.653 µM.

What about the TGI [15] of the same molecule?
The TGI was 26.1 µM.

And the TGI [16]?
Its TGI is 11.5 µM.

And the TGI [17]?
Its TGI is greater than 41.9 µM.

What about the TGI [18] of the same molecule?
The TGI was 0.829 µM.

What about the TGI [19] of the same molecule?
Its TGI is greater than 55.4 µM.

And the TGI [20]?
Its TGI is 0.706 µM.

And the TGI [22]?
The TGI was greater than 28.3 µM.

What about the TGI [23] of the same molecule?
Its TGI is greater than 21.1 µM.

What about the TGI [27] of the same molecule?
The TGI was greater than 39.8 µM.

What about the TGI [29] of the same molecule?
Its TGI is 0.326 µM.

What about the TGI [30] of the same molecule?
Its TGI is 4.21 µM.

What about the TGI [31] of the same molecule?
The TGI was 0.578 µM.

And the TGI [33]?
The TGI was 0.591 µM.

What about the TGI [34] of the same molecule?
The TGI was 0.829 µM.

And the TGI [35]?
Its TGI is greater than 100 µM.

And the TGI [37]?
The TGI was 0.234 µM.

What about the TGI [38] of the same molecule?
The TGI was 1.3 µM.

And the TGI [41]?
Its TGI is 0.237 µM.

What about the TGI [42] of the same molecule?
Its TGI is 0.667 µM.

And the TGI [56]?
Its TGI is 4.87 µM.

And the TGI [43]?
Its TGI is 1.22 µM.

What about the TGI [44] of the same molecule?
The TGI was 2.85 µM.

And the TGI [45]?
The TGI was 0.169 µM.

What about the TGI [57] of the same molecule?
The TGI was 5.17 µM.

What about the TGI [47] of the same molecule?
Its TGI is 0.304 µM.

What about the TGI [48] of the same molecule?
The TGI was 0.341 µM.

What about the TGI [51] of the same molecule?
Its TGI is greater than 100 µM.

And the TGI [52]?
The TGI was 2.81 µM.

What about the TGI [53] of the same molecule?
The TGI was 4.03 µM.

What about the TGI [54] of the same molecule?
Its TGI is 2.13 µM.
